Earlier results on one compound are cited in US20220305028A1, “METHOD FOR PREPARING A LIPOSOMAL COMPOSITION COMPRISING LATANOPROST, AND THE PHARMACOLOGICALLY ACTIVE LIPOSOMAL COMPOSITION FOR OPHTHALMOTHERAPY PREPARED BY THIS METHOD” (CONSORTIUM "UKRINDUSTRY", priority 2021, published 2022).

The structures appear in SMILES notation.

The conditions of this series: aqueous ophthalmic drops.

Consider `CC(C)OC(=O)CCC/C=C\C[C@@H]1[C@@H](CC[C@@H](O)CCc2ccccc2)[C@H](O)C[C@@H]1O` [latanoprost, Latanoprost], for which the “penetration of the latanoprost from the drops through a corneal epithelium” value is given as “not more than 5 % of the administered amount”.
